The results in this text go back to ChEMBL document CHEMBL5137070, “N-2-(Phenylamino) Benzamide Derivatives as Dual Inhibitors of COX-2 and Topo I Deter Gastrointestinal Cancers via Targeting Inflammation and Tumor Progression” (J Med Chem, 2022).

What is called IC50 is the concentration that gives 50% inhibition. By Tmax is commonly meant the time at which the peak concentration occurs. In general, AUC(0-inf) refers to the area under the concentration-time curve extrapolated to infinity. Lower therefore signals less exposure.

Active and inactive are the calls of the source. The calls are words filed in the database; no cut-off is given here. A value given as a limit tells only on which side of the number the result lay.

The target of one data set is T1, DNA topoisomerase 1 (Homo sapiens, UniProt P11387).
T1 sequence (P11387 whole entry): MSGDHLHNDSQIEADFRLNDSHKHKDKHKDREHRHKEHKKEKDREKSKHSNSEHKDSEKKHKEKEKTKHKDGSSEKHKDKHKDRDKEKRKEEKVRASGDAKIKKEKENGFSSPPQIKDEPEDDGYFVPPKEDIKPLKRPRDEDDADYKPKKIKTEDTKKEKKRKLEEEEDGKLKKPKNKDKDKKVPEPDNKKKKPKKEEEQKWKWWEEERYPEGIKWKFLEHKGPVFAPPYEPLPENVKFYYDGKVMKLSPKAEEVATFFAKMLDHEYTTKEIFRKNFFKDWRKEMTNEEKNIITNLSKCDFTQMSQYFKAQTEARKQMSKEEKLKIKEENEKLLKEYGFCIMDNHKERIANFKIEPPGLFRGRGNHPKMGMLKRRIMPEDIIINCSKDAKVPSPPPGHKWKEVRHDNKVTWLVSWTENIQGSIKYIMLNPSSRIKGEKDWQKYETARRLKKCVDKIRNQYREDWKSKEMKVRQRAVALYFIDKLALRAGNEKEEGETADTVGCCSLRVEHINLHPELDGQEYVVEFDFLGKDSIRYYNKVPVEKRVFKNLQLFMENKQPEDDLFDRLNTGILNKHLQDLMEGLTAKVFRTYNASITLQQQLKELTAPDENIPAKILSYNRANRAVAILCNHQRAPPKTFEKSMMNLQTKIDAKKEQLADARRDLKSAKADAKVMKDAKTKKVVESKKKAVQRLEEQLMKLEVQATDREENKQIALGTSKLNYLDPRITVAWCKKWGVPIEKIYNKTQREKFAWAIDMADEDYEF
The data set is described as follows: Inhibition of human topoisomerase I assessed as DNA relaxation using DNA pBR322 as substrate incubated for 30 mins by ethidium bromide staining based agarose gel electrophoresis.

In data set [1] the test system is HGC-27. The data set is described as follows: Effect on cell morphology in human HGC-27 cells assessed as condensed morphology at 10 uM incubated for 48 hrs by giemsa staining based microscopic analysis. It is filed as functional.
The subject of data set [2] is HGC-27. The data set is described as follows: Effect on cell morphology in human HGC-27 cells assessed as contracted nucleus at 10 uM incubated for 48 hrs by giemsa staining based microscopic analysis. It is filed as functional.
Data set [3] concerns HGC-27. The data set is described as follows: Induction of pro-apoptosis in human HGC-27 assessed as DNA breakdown by analyzing DNA ladder at 1.1 to 10 uM for 36 hrs by ethidium bromide staining based agarose gel electrophoresis. It is filed as functional, cell-based. Conditions: dose 1.1-10 µM.
For data set [4], the system named is HGC-27. The data set is described as follows: Induction of apoptosis in human HGC-27 cells assessed as increase in caspase-3 activity at 10 uM incubated for 36 hrs by flow cytometry (Rvb= 9.39%). It is filed as functional.
Data set [5] deals with RKO. The data set is described as follows: Induction of apoptosis in human RKO cells assessed as increase in caspase-3 activity at 1.1 to 10 uM incubated for 36 hrs by flow cytometry. It is filed as functional, cell-based. Conditions: dose 1.1-10 µM, DDE = dose-dependent effect. (In general: A flow cytometer gives signals particle by particle.)
The subject of data set [6] is HGC-27. The data set is described as follows: Induction of mitochondrial membrane loss in human HGC-27 at 1.1 to 10 uM and measured after 36 hrs by TMRE dye based flow cytometry. It is filed as functional, cell-based. Conditions: dose 1.1-10 µM, DDE = dose-dependent effect.
For data set [7], the system named is HGC-27. The data set is described as follows: Induction of apoptosis in human HGC-27 cells assessed as increase in cytochrome C level at 1.1 to 10 uM incubated for 24 hrs by western blot assay. It is filed as functional, cell-based. The settings on record: dose 1.1-10 µM.
The subject of data set [8] is RKO. The data set is described as follows: Anti-migration activity against human RKO cells assessed as decrease in cell migration rate at 0.37 uM for 48 hrs by crystalline violet staining based assay. It is filed as functional.
The test system of another data set is RAW264.7. The data set is described as follows: Inhibition of LPS induced NO production in mouse RAW264.7 cells at 1.1 uM incubated for 1 hrs followed by LPS stimulation and measured after 24 hrs by Griess reagent based assay. The settings on record: time 25.0 hrs. It is filed as functional, cell-based.
Data set [9] can be described thus: Tmax in Sprague-Dawley rat at 100 mg/kg, ip and measured upto 8 hrs by LC-MS/MS analysis. It is filed as ADME, organism-based. Conditions: in vivo.
Data set [10] in a line: AUC (0 to infinity) in Sprague-Dawley rat at 100 mg/kg, ip and measured upto 8 hrs by LC-MS/MS analysis. It is filed as ADME, organism-based. Details: dose 100 mg/kg, time < 8 hrs, route ip. Conditions: in vivo.
A short description of data set [11]: Metabolic stability in rat whole blood assessed as parent compound remaining at 23.76 to 536 ug/mL and measured upto 4 hrs by HPLC analysis. It is filed as ADME, tissue-based. Conditions: at 23.76 to 536 µg/mL, dose 23.76-536 µg/ml, read-out: Stability.
Data set [12] deals with CT26.WT. The data set is described as follows: Anti-tumor activity against mouse CT26.WT xenografted in BALB/c mouse assessed as decrease in tumor size at 100 mg/kg, ip twice daily and measured upto 14 days relative to control. It is filed as functional, organism-based. Conditions: time <= 14.0 day.
Data set [13] is described as follows: Toxicity in BALB/c mouse xenografted with mouse CT26.WT assessed as pathological changes in heart at 100 mg/kg, ip twice daily and measured after 14 days by hematoxylin and eosin staining based microscopic analysis. It is filed as organism-based. Conditions: in vivo, 336 h, time 14 day.
Data set [14] has as its system CT26.WT. The data set is described as follows: Anti-tumor activity against mouse CT26.WT xenografted in BALB/c mouse assessed as increase in apoptosis at 100 mg/kg, ip twice daily and measured after 14 days by TUNEL staining based assay. It is filed as functional, organism-based. Conditions: time 14.0 day.
Data set [15] concerns CT26.WT. The data set is described as follows: Anti-tumor activity against mouse CT26.WT xenografted in BALB/c mouse assessed as decrease in COX-2 expression level in tumor tissue at 100 mg/kg, ip twice daily and measured after 14 days by immunohistochemical analysis. It is filed as functional, organism-based. Conditions: time 14.0 day.
The test system of data set [16] is HGC-27. The data set is described as follows: Induction of apoptosis in human HGC-27 cells assessed as increase in caspase-3 activity at 3.3 uM incubated for 36 hrs by flow cytometry (Rvb= 9.39%). It is filed as functional.

Turning to `Cc1c(Cl)cccc1Nc1ccc(F)cc1C(=O)NCc1ccc(O)c(O)c1`, at DNA topoisomerase 1, the IC50 is 4.42 µM. The outcome in the data set on HGC-27 [1], in the data set on HGC-27 [2], with HGC-27 [3], in the data set on HGC-27 [7], in the data set with RKO [8] and with CT26.WT [12] was Active. In addition, the result in the data set with CT26.WT [14] and in the data set on CT26.WT [15] was Active. Also, the Activity in the data set with HGC-27 [4] was 69.46%; with RKO [5], “Dde”; in the data set with HGC-27 [6], “Dde”; in data set [13], “Non-Toxic”; in the data set with HGC-27 [16] it was 68.8%. The inhibition entry with RAW264.7 is “Active”. The Tmax in data set [9] was 40.2 min. Besides, the AUC(0-inf) in [10] was found to be 18600 ng·h/mL. Also, the remaining at 4 h in data set [11] was above 90%.
